From US20260256765A1, “METHOD OF TREATING DISEASE USING COMPOUND, AND USE OF COMPOUND” (TENNOR THERAPEUTICS (SUZHOU) LIMITED, priority 2023, published 2026)
Converted amounts (≈) assume the structure as drawn. Like-named read-outs stand apart in the source and are kept apart here.

Key:
Format in all cases: cell-based
[1] = test system: Gram-negative bacteria (14 strains); assay: MIC by standard broth dilution against clinical DFI isolates, Gram-negative bacteria
Experimental: (§1) Preparation of test strains: In this example, foot specimens were collected from 49 patients with type II diabetes. Isolates were obtained from the specimens described above through homogenization, plating, and culture at 37° C., and after the removal of fungi and strains with poor growth or strains that could not be isolated and purified, a total of 69 clinical strains were obtained. Among these, 55 strains were Gram-positive bacteria and 14 strains were Gram-negative bacteria. Of the Gram-positive bacteria, 43 strains were staphylococci, including 18 Staphylococcus aureus strains, 8 Staphylococcus epidermidis strains, and 5 Staphylococcus lugdunensis strains. One ATCC standard strain was additionally used as a standard and quality control strain.
(§2) Determination of antibacterial activity: The minimum inhibitory concentration (MIC) and the minimum biofilm bactericidal concentration (MBBC) for in vitro biofilms of the compound of formula (I) and control drugs (see details in 2) against 69 clinically isolated diabetic foot infection clinical strains were evaluated using the standard broth dilution method and the in vitro biofilm culture and drug susceptibility methods reported in the literature.

[2] = test system: Gram-positive bacteria (55 strains); assay: MBBC for in vitro biofilms of clinical DFI isolates, Gram-positive bacteria; conditions: biofilms, Gram-positive bacteria (55 strains)
Experimental: as §1
(§3) Preparation of biofilms: In a sterile environment, a single, identified, and thawed colony was picked with an inoculation loop and bacterial inoculums were adjusted to a 0.5 McFarland standard, which served as an initial bacterial inoculum. The bacterial inoculum was diluted in a 1:200 ratio by adding 50 μL of the initial bacterial inoculums to 10 mL of a CAMHB medium. 150 μL of the bacterial inoculums was transferred to a CBD plate using a pipette. The inoculated CBD plate was incubated in an incubator at 35±2° C. for 16-20 hours.
as §2

[3] = test system: Gram-negative bacteria (14 strains); assay: MBBC for in vitro biofilms of clinical DFI isolates, Gram-negative bacteria
Experimental: as §1, §3, §2

[4] = test system: Staphylococci (43 strains); assay: MIC against clinical DFI isolates, staphylococci total; conditions: for MIC90: read-out: MIC90
Experimental: as §1, §2

[5] = test system: Staphylococcus aureus (18 strains); assay: MIC against clinical DFI isolates, Staphylococcus aureus; conditions: for MIC90: read-out: MIC90
Experimental: as §1, §2

[6] = test system: Staphylococci (43 strains); assay: MBBC against biofilms of clinical DFI isolates, staphylococci total
Experimental: as §1, §3, §2

[7] = test system: Staphylococcus aureus (18 strains); assay: MBBC against biofilms of clinical DFI isolates, Staphylococcus aureus
Experimental: as §1, §3, §2

[8] = test system: Gram-positive bacteria (55 strains); assay: MIC by standard broth dilution against clinical DFI isolates, Gram-positive bacteria
Experimental: as §1, §2

[9] = test system: Staphylococcus epidermidis (8 strains); assay: MIC against clinical DFI isolates, Staphylococcus epidermidis
Experimental: as §1, §2

[10] = test system: Staphylococcus epidermidis (8 strains); assay: MBBC against biofilms of clinical DFI isolates, Staphylococcus epidermidis
Experimental: as §1, with “strain. […]” for “strain.”
as §2

[11] = Staphylococci (43 strains), total, read-out: MIC50
[12] = Staphylococci (43 strains), total
[13] = Staphylococcus aureus (18 strains), read-out: MIC50
[14] = Staphylococcus aureus (18 strains)
[15] = biofilms, Staphylococci (43 strains), total, read-out: MBBC50
[16] = biofilms, Staphylococci (43 strains), total, read-out: MBBC90
[17] = biofilms, Staphylococcus aureus (18 strains), read-out: MBBC50
[18] = biofilms, Staphylococcus aureus (18 strains), read-out: MBBC90
[19] = Gram-positive bacteria (55 strains), clinical DFI isolates
[20] = Gram-positive bacteria (55 strains), clinical DFI isolates, read-out: MIC50

| Compound | MIC50 [1] | MIC90 [1] | MBC ([2]; read-out: MBBC50) | MBC ([2]; read-out: MBBC90) | MBC ([3]; read-out: MBBC50) | MBC ([3]; read-out: MBBC90) | MIC50 [4, 11] | MIC90 [4, 12] | MIC50 [5, 13] | MIC90 [5, 14] | MBC [6, 15] | MBC [6, 16] | MBC [7, 17] | MBC [7, 18] | MIC90 [8, 19] | MIC50 [8, 20] | MIC range [5, 14] | further results |
| --- | --- | --- | --- | --- | --- | --- | --- | --- | --- | --- | --- | --- | --- | --- | --- | --- | --- | --- |
| Cc1onc(-c2ccccc2)c1C(=O)N[C@@H]1C(=O)N2[C@@H]1SC(C)(C)[C@@H]2C(=O)O [Oxacillin] | > 128 µg/mL | > 128 µg/mL | > 128 µg/mL | > 128 µg/mL | > 128 µg/mL | > 128 µg/mL | 2 µg/mL (≈ 4.98 µM) | 128 µg/mL (≈ 319 µM) | 0.5 µg/mL (≈ 1.25 µM) | 64 µg/mL (≈ 159 µM) | > 128 µg/mL | > 128 µg/mL | 32 µg/mL (≈ 79.7 µM) | > 128 µg/mL | – | – | – | – |
| CO[C@H]1/C=C/O[C@@]2(C)Oc3c(C)c(O)c4c(O)c(c(/C=N/N5CCC(N(C)C6([C@@H]7CCN(c8c(F)cn9c(=O)c(C(=O)O)cc(C%10CC%10)c9c8C)C7)CC6)CC5)c(O)c4c3C2=O)NC(=O)/C(C)=C\C=C\[C@H](C)[C@H](O)[C@@H](C)[C@@H](O)[C@@H](C)[C@H](OC(C)=O)[C@@H]1C [Compound of formula (I)] | > 32 µg/mL | > 32 µg/mL | 0.125 µg/mL | 16 µg/mL | > 16 µg/mL | > 32 µg/mL | ≤ 0.015 µg/mL | ≤ 0.015 µg/mL | ≤ 0.015 µg/mL | ≤ 0.015 µg/mL | 0.06 µg/mL | 0.5 µg/mL | 0.25 µg/mL | 0.5 µg/mL | 0.25 µg/mL | ≤ 0.015 µg/mL | ≤0.015~0.03 μg/mL | MIC50 ([8]; Gram-positive bacterial isolates, text b97): < 0.015 µg/mL; MIC range [4, 12]: ≤0.015~0.25 μg/mL; MIC50 ([4]; staphylococci, read-out: MIC50): < 0.015 µg/mL; MIC90 ([4]; staphylococci): 0.015 µg/mL; MIC50 ([5]; Staphylococcus aureus, read-out: MIC50): < 0.015 µg/mL; MIC90 ([5]; Staphylococcus aureus): 0.015 µg/mL; MIC range [9]: ≤0.015~0.03 ^ μg/mL; MBBC range ([6]; biofilms, Staphylococci (43 strains), total): ≤0.015~1 μg/mL; MBBC range ([6]; in vitro biofilms of staphylococci): 0.015 to 1 g/mL; MBBC50 ([6]; staphylococci biofilms): 0.06 µg/mL; MBBC90 ([6]; staphylococci biofilms): 0.5 µg/mL; MBBC50 ([7]; Staphylococcus aureus biofilms): 0.25 µg/mL; MBBC range ([7]; biofilms, Staphylococcus aureus (18 strains)): 0.03~0.5 μg/mL; MBBC range ([7]; in vitro biofilms of Staphylococcus aureus): 0.03 to 0.5 g/mL; MBBC range [10]: ≤0.015~0.06 ^ μg/mL |
| CCC[C@@H]1C[C@@H](C(=O)N[C@@H]([C@H]2O[C@H](SC)[C@H](O)[C@@H](O)[C@H]2O)[C@H](C)Cl)N(C)C1 [Clindamycin] | > 128 µg/mL | > 128 µg/mL | > 128 µg/mL | > 128 µg/mL | > 128 µg/mL | > 128 µg/mL | – | 128 µg/mL (≈ 301 µM) | – | 0.25 µg/mL (≈ 0.588 µM) | > 128 µg/mL | > 128 µg/mL | > 128 µg/mL | > 128 µg/mL | > 128 µg/mL | 0.25 µg/mL (≈ 0.588 µM) | ≤0.06~0.5 μg/mL | MIC50 [4]: 0.125 µg/mL (≈ 0.294 µM); MIC50 ([5]; Staphylococcus aureus): 0.125 µg/mL (≈ 0.294 µM) |
